Assay results taken from US9346854B2, “Anti-inflammatory peptides and use thereof” (Yeda Research and Development Co. Ltd., priority 2012, dated 2016).
Entries after “also recorded” stand apart in the source; their conditions may differ. Read-outs that look alike come from different tables or passages of the source. No end group written: not given here.

How the values were obtained:
RAW264.7 macrophages = type: cell-based, murine; details: for IC50: 2 h; for LC50 (cytotoxicity): toxicity, XTT, 2 hours incubation (method: LC50), read-out: IC50 macrophages RAW264.7
Procedure: (§1) All in vitro assays were performed on RAW264.7 murine macrophages (ATCC-TIB71). Cells were grown in DMEM supplemented with 10% FBS, L-glutamine, sodium pyruvate, non-essential amino acids and antibiotics (Biological Industries, Beit Haemek, Israel). Incubator was set on 37° C. with a humidified atmosphere containing 5% CO2.
1×10^4 cells per well were grown overnight on a 96-well plate. The following day, the media were replaced with 90 μl fresh culture medium and 10 μl solution buffer containing different concentrations of the different peptides. Peptide concentrations ranged from 0.78-100 μM. The cells were then incubated for 2 hours before adding to each well 50 μl of 2,3-bis-2H-tetrazolium-5-carboxanilide inner salt (XTT) reaction solution (Biological Industries). Viability was determined as described previously (Makovitzki et al. Cancer Res 69, 3458-63, 2009; Papo et al. 2006). The LC50 (the concentration at which 50% of the cells die) for each peptide was obtained from the dose-dependent cell viability curves.

E. coli 25922 = type: cell-based
Procedure: (§2) The antibacterial activity of the peptides was examined in sterile 96-well plates (Nunc F96 microtiter plates) in a final volume of 100 μl, as follows. Aliquots (50 μl) of a suspension containing bacteria at a concentration of 10^6 colony-forming units/ml in culture medium (LB medium) were added to 50 μl of peptide serially diluted in culture medium (100 μM-0.78 μM). Inhibition of growth was determined by eye after an incubation of 18-20 h at 37° C. Antibacterial activities were expressed as the minimal inhibitory concentration, the concentration at which 100% inhibition of growth was observed after 18-20 h of incubation. In these the effect of the peptides on E. coli (ATCC:25922) and S. aureus (ATCC:6538P) was tested.

S. aureus 6538P = type: cell-based
Procedure: as §2

RBL cells = type: cell-based, rat
[1] = LPS binding assay with NBD-labeled peptides; details: NBD-labeled peptide affinity to LPS
Procedure: NBD-labeled peptides (50 μl, 2 μM, PBS^−/− 2% DMSO) were added to different concentrations of LPS (50 μl PBS^−/−) in a opaque black 96 well plate. After 10 minutes of incubation at room temperature, the fluorescence was measured using an excitation of 467 nm and emission of 530 nm. The data were plotted and Kd and Bmax values obtained using NLLSQ analysis.

RBL-2H3 cells = assay: IgE and DNP-BSA mediated degranulation (β-hexoseaminidase release); type: cell-based, rat; details: for Inhibition of Degranulation (%): peptide concentration 20 μM, derived from FIG. 9A
Procedure: In order to study the specific effect of the peptides of the invention on direct IgE mediated degranulation, the rat basophilic cell line (RBL-2H3) was used. This cell line expresses high levels of surface IgE receptor that binds IgE with high affinity (FcεRI). Upon adding an allergen (IgE antigen) there is a cross-linking of adjacent FcεRs that results in degranulation and release of histamine. Degranulation was measured as release of intracellular β-hexoseaminidase (Nunomura et al., Int Immunol 17, 685-94, 2005).
In this assay system, RBL cells were incubated with the DNP-specific murine monoclonal IgE SPE7 (Eshhar et al., J Immunol 124:775, 1980) for 2.5 hours. The cells were washed and centrifuged and then further incubated with the DNP-BSA antigen that crossed-link the FcεRI bound IgE. Next, extracellular hexoseaminidase levels were evaluated by their ability to hydrolyze the 4-nitrophenyl-N-acetyl-β-D-glucosaminide substrate which results in the accumulation of a colored product. The tested peptides (see Table 5) were added at different concentrations and stages of the assay and tested for their ability to inhibit this reaction.
In the first set of experiments, RBLs were incubated with different concentrations of the (AL)6AK2 peptide or irrelevant control peptide (alpha subunit peptide) in the presence of IgE. Following incubation, the cells were washed and DNP10-BSA with peptide was added to crosslink adjacent FcεRI (FIG. 6). Following incubation, the cells were washed and suspended in the degranulation medium for either 30 (FIG. 6A) or 60 min. (FIG. 6B).

TLR4 activation by LPS = assay: TNFα secretion by RAW264.7 macrophages stimulated with LPS; type: cell-based, murine; details: for inhibition of LPS activation of macrophages (TNFα secretion), in words: LPS 10 ng/ml, peptide 20 μM (FIGS. 1A, 2)
Procedure: as §1
(§3) 2×10^5 cells per well were cultured overnight in a 96-wells plate. The following day, the media were replaced by fresh DMEM, including all supplements. Peptides were dissolved in DMSO and added to the cells in different concentrations. Final concentration of DMSO was 1% for all groups. Cells were incubated with the peptide for 2 hours, then LPS (TLR4 activator) or LTA (TLR2 activator) was added to the cells at 10 ng/ml or 500 ng/ml, respectively. The cells were further incubated for 5 hrs at 37° C., after which samples of the media from each treatment were collected and stored at −20° C. TNFα concentration in each sample was evaluated using a mouse TNFα enzyme-linked immunosorbent assay kit (Biosource™ ELISA, Invitorgen), according to the manufacturer's protocol. All experiments were done in triplicates.

Balb/c mice = assay: Antigen (OVA) induced anaphylactic shock; type: in vivo; details: for Survival of anaphylactic shock (%): i.v. 10-15 mg/kg, 30-45 minutes prior to soluble OVA challenge
Procedure: The inhibitory capacity of the Kn(AL)nKn peptides was tested in the most rigorous manner for inhibition of otherwise fatal anaphylaxis. In this model, Balb/c mice were immunized by an i.p. injection of 100 μg OVA in 5 mg Alum and 1.5 μg pertusis, a protocol that favors IgE-type of response. Three weeks later the immunized mice received an i.v. injection of soluble OVA (3.5-5 μg), resulting in a rapid and aggressive anaphylactic shock. In this specific model, the immunized mice die within 10-20 minutes after the systemic (i.v.) OVA injection.
To test the ability of the peptides of the invention to inhibit anaphylactic shock formation, an i.v. injection of the K2(AL)8K2 peptide at 10-15 mg/kg was administered, 30-45 minutes prior to the soluble OVA challenge. Strikingly, this single injection rescued 87% of the sensitized mice (Table 7). […] In several mice that were protected by the K2(AL)8K2 peptide, the protection lasted for at least 2 days. Peptide treated mice died of anaphylactic shock only after systemic injection of a very high dose of OVA. Still, the exact conditions for optimum protective activity need to be validated.

C57BL mice = assay: In vivo toxicity in mice; details: 100 mg/kg i.p.
Procedure: Toxicity was tested by intraperitoneal injection of K2(AL)8K2 (100 mg/kg in 400 μl saline) in female C57B1 mice (n=2). Mice were continuously observed for 1 hour immediately following injection and once per day for 7 days. To examine the effect of our peptides on acute septic shock driven by LPS hyperactivation of TLR4 we have used murine models as described before (Zheng et al. Int Immunopharmacol 10, 1209-19, 2010; Arima et al, 2005). Briefly, 12 weeks old C57 Black female mice were treated with 100 ng of LPS injected IP in a saline solution (200 μl, pH 6.5) containing 200 mg/ml of D-galactosamine (Calbiochem). Treated mice received one IP injection of 10 mg/kg peptide dissolved in saline (200 μl) following the LPS injection. In the second model heat-killed bacteria were used to induce a lethal septic shock. E. coli cells were grown to a mid log phase (OD=0.5) at 37° C., cooled on ice, and centrifuged at 3500 rpm for 10 minutes at 4° C. The cells were re-suspended in saline for a concentration of 2×10^9 cells in 200 μl and heated at 95° C. for 30 minutes. Each animal received an IP injection of 2×10^9 cells in 200 μl saline followed by injection of 10 mg/kg peptide dissolved in saline (200 μl). Animals were monitored for survival and for signs of sepsis for the next 14 days after LPS injection. Peptides used as the acetic acid salts for in vivo experiments. […]

TLR2 activation by LTA = assay: TNFα secretion by RAW264.7 macrophages stimulated with LTA; type: cell-based, murine; details: LTA 500 ng/ml; peptide 20 μM (FIG. 1A)
Procedure: as §1, §3

[2] = 100% inhibition of growth after 18-20 h

| Substance | IC50 (RAW264.7 macrophages) | MIC E. coli 25922 (E. coli 25922; 25922) | MIC S. aureus 6538P (S. aureus 6538P; 6538P) | Kd [1] | other results |
| --- | --- | --- | --- | --- | --- |
| ALALALALALALAKK-NH2 [(AL)6AK2, ALALALALALALAKK] | > 100 µM | >100 µM | >100 µM | – | killing or growth inhibition of RBL cells (RBL cells): did not kill or inhibited the growth |
| ALALALALALALALALALKK [4D-(AL)9K2] | – | – | – | – | LC50 (cytotoxicity) (RAW264.7 macrophages): 50 µM; MIC E. coli 25922 (E. coli 25922; [2]): >100 µM; MIC S. aureus 6538P (S. aureus 6538P; [2]): >100 µM |
| ALALALALALALALALALKK-NH2 [(AL)9K2] | > 100 µM | >100 µM | >100 µM | 4.4 µM | Inhibition of Degranulation (%) (RBL-2H3 cells): 30% |
| ALALALALALALALK-NH2 [(AL)7K] | – | – | – | – | LC50 (cytotoxicity) (RAW264.7 macrophages): > 100 µM; MIC E. coli 25922 (E. coli 25922; [2]): >100 µM; MIC S. aureus 6538P (S. aureus 6538P; [2]): >100 µM |
| KALALALALALALAK-NH2 [K(AL)6AK] | > 100 µM | >100 µM | >100 µM | – | – |
| KALALALALALALALALALK-NH2 [K(AL)9K] | > 100 µM | >100 µM | >100 µM | – | – |
| KALALALKALALKALALALK-NH2 [K(AL)3K(AL)2K(AL)3K] | 25 µM | 25 µM | 12.5 µM | 9.6 µM | inhibition of LPS activation of macrophages (TNFα secretion), in words (TLR4 activation by LPS): highly active |
| KKALALALALALAKK-NH2 [K2(AL)5AK2, KKALALALALALAKK] | > 100 µM | >100 µM | >100 µM | 2.7 µM | inhibition of LPS activation of macrophages (TNFα secretion), in words (TLR4 activation by LPS): lower activity; inhibition (LPS neutralization) (TLR4 activation by LPS; peptide 20 μM): 50% |
| KKALALALALALALALALALALAKK [K2(AL)10AK2] | – | – | – | – | Survival of anaphylactic shock (%) (Balb/c mice): 50% |
| KKALALALALALALALALKK [4D-K2(AL)8K2] | – | – | – | 15.6 µM | LC50 (cytotoxicity) (RAW264.7 macrophages): > 100 µM; MIC E. coli 25922 (E. coli 25922; [2]): 100 µM; MIC S. aureus 6538P (S. aureus 6538P; [2]): 100 µM |
| KKALALALALALALALALKK-NH2 [K2(AL)8K2] | > 100 µM | >100 µM | >100 µM | – | adverse effects in vivo (C57BL mice): not adversely affected |
| KKALALALKK-NH2 [K2(AL)3K2, KKALALALKK] | > 100 µM | >100 µM | >100 µM | 10 to 15 µM | inhibition of LPS activation of macrophages (TNFα secretion), in words (TLR4 activation by LPS): inactive |
| KKAVAVAVAVAVAVAVAVKK-NH2 [K2(AV)8K2] | 90 µM | >100 µM | >100 µM | – | inhibition of LPS activation of macrophages (TNFα secretion), in words (TLR4 activation by LPS): medium inhibition; also recorded: lower activity; inhibition of LTA activation of macrophages (TNFα secretion), in words (TLR2 activation by LTA): good inhibition |
| LALALALALALALALALALK-NH2 [L(AL)9K] | – | – | – | – | LC50 (cytotoxicity) (RAW264.7 macrophages): > 100 µM; MIC E. coli 25922 (E. coli 25922; [2]): >100 µM; MIC S. aureus 6538P (S. aureus 6538P; [2]): >100 µM; inhibition of IgE/DNP-BSA degranulation, in words (RBL-2H3 cells): no inhibition; Inhibition of Degranulation (%) (RBL-2H3 cells): 0%; Survival of anaphylactic shock (%) (Balb/c mice): 0%; protection from anaphylactic shock, in words (Balb/c mice; mouse, in vivo): failed also to give any protection |
